Assay results from patent US8158605B2, “Azacytidine analogues and uses thereof” (Mount Sinai School of Medicine, priority 2007, dated 2012).

Experiments:
NFκB = experiment: LPS stimulated NFκB luciferase reporter activity in U937 cells; format: cell-based, human; details: 10 nM, LPS 1 μg/ml, 1, 3 or 6 hours, compared to DMSO treated control
Method: NFκB-luciferase reporter genes were used to determine the influence of Aza-C and 5-Aza-C-5′-elaidic acid on NFκB-induced luciferase activity in a human monocytic cell line U937, stably transfected with a luciferase reporter containing three NFκB-binding sites. The induction of NFκB was performed using lipopolysaccharide (LPS) at 1 μg/ml for 30 minutes prior to the addition of Aza-C or 5-Aza-C-5′-elaidic acid in the concentrations 10 nM to the medium. The cells were cultured in RPMI-1640 medium including 10% fetal bovine serum. Before stimulation with LPS the cells were transferred to medium containing only 2% fetal bovine serum. Luciferase activity was measured by imaging in an IVIS imaging System 100 (Xenogen Corp., USA) after 1, 3 or 6 hours. The LPS stimulation increased with time over the 6 hours followed in the DMSO treated control cells. […] Generally, a positive stimulation of NFκB as observed for azacytidine is not positive, and it is positive that the LPS stimulation is not further increased by 5′Aza-C-5′-elaidic acid.

cell cycle = experiment: Cell cycle analysis of DNA contents by flow cytometry; format: cell-based
Method: Cells were pelleted by centrifugation, and washed twice with PBS, fixed with 70% (v/v) cold ethanol (−20° C.), and stored at 4° C. for at least 24 hours. The cells were washed in PBS. Cell pellets were stained with PI/RNase staining solution. The cell suspension was incubated in the dark at room temperature for 30 min. DNA content was determined using a FACSCalibur flow cytometry (Becton Dickinson, Mount View, Calif.). Percentages of cells in Sub-G1, G1, S and G2/M stages of the cell cycle were determined with DNA histogram-fitting program (Becton Dickinson). A minimum of 10,000 events per sample was recorded.
Cells were cultured for the indicated lengths of time before being processed for analyses of DNA contents by flow cytometry. Numerical values in a panel represent gated cell population with sub-G1 DNA contents. The most significant changes were observed after 24 hours of treatment.

[1] = tested on: Hela cervix carcinoma cells; experiment: MTT cytotoxicity with or without nucleoside transport inhibitor dipyridamole; format: cell-based
Method: Dipyridamole was used as an inhibitor of the equilibrative nucleoside transporters hENT1 and hENT2. […] The cells were pre-incubated for 24 hours. Dipyridamole (10 μM) was added to the cells 30 minutes prior to the addition of the test compounds. […] Six wells were used per test concentration. The cells were incubated with test compound for 72 hours.

[2] = tested on: HL60, K562, and U937 cells; experiment: Apoptosis induction in leukemia cells (AO/EB microscopy, Annexin-V/PI flow cytometry); format: cell-based, human; details: 0.5-4 μM, 24 hours; AO/EB staining and Annexin-V/PI flow cytometry
Method: Apoptotic cells were defined using morphological criteria and fluorescence-activated cell sorting (FACS) after staining with Annexin V-FITC. For morphologic analysis, 1 μl of stock solution containing 100 μg/ml AO and 100 μg/ml EB was added to 25 μl cells suspension. The apoptitic cells and apoptotic bodies were analyzed with the aid of a fluorescence microscopy. The percentage of apoptotic cells was calculated after counting total 300 cells. For FACS analysis, […] to 5×10^6 cells were washed with PBS and then labeled with Annexin V-FICS and propidium iodide (PI) in medium-binding reagent according to the Annexin V-FITC apoptosis detection kit instruction provided by the manufacturer. Fluorescent signals of FITC and PI were detected, respectively, at 518 nm and at 620 nm on FACSCAN (Becton Dickinson, San Jose, Calif.). […] The data was analyzed by the CellQuest program (Becton Dickinson). For each analysis, 10,000 cells events were recorded.
The percentage of apoptotic cells was determined with the aid of a fluoresence microscope after staining with acridine orange and ethidium bromide (See FIG. 2A). […] The percentage of apoptotic cells was determined by flow cytometry using Annexin-V and PI staining. […] (See FIGS. 2a and 2b)

## CCCCCCCC/C=C/CCCCCCCC(=O)OC[C@H]1O[C@@H](n2cnc(N)nc2=O)[C@H](O)[C@@H]1O [CP, 5-azacytidine 5′-elaidate]
NFκB
  LPS stimulated NFκB luciferase activity: did not differ from the DMSO control
Cell cycle; 24 hour, dose 0.5 μM
  % cell G1: 43.66%
  % cell G2/M: 11.05%
  % cell S: 28.15%
  % cell Sub G1: 9.41%
Cell cycle; 24 hour, dose 1 μM
  % cell G1: 36.17%
  % cell G2/M: 8.82%
  % cell S: 18.98%
  % cell Sub G1: 21.02%
Cell cycle; 24 hour, dose 2 μM
  % cell G1: 23.45%
  % cell G2/M: 2.64%
  % cell S: 9.14%
Cell cycle; 24 hour, dose 2 μM, listed as 5-azacytidine 5′-elaidate
  % cell Sub G1: 33.6%
Cell cycle; 24 hour, dose 2 μM, listed as cp
  % cell Sub G1: 33.59%
Cell cycle; 48 hour, dose 0.5 μM
  % cell G1: 34.79%
  % cell G2/M: 2.53%
  % cell S: 42.96%
  % cell Sub G1: 15.14%
Cell cycle; 48 hour, dose 1 μM
  % cell G1: 28.07%
  % cell G2/M: 17.91%
  % cell S: 30.06%
  % cell Sub G1: 14.34%
Cell cycle; 48 hour, dose 2 μM
  % cell G1: 22.51%
  % cell G2/M: 7.78%
  % cell S: 15.62%
  % cell Sub G1: 24.34%
Cell cycle; 72 hour, dose 0.5 μM
  % cell G1: 38.72%
  % cell G2/M: 18.82%
  % cell S: 29.18%
  % cell Sub G1: 10.54%
Cell cycle; 72 hour, dose 1 μM
  % cell G1: 40.67%
  % cell G2/M: 18.26%
  % cell S: 28.77%
  % cell Sub G1: 10.75%
[1]; Hela, with vs without dipyridamole
  cytotoxic activity increased when hENT1 and hENT2 blocked by dipyridamole: 50 fold
[1]; Homo sapiens, HeLa, 72 h, Hela with dipyridamole (10 μM), MTT
  IC50: 230 nM
[2]
  number of apoptotic cells: concentration-dependent increase in the number of apoptotic cells
